In ChEMBL document CHEMBL1155537, “Looking for a 5-HT7 radiotracer for positron emission tomography” (Bioorg Med Chem Lett, 2010):

Target: 5-hydroxytryptamine receptor 7 (Homo sapiens) (UniProt P34969)
Test: Binding affinity to human 5HT7 receptor expressed in CHO cells
Format: cell-based

Sequence of 5-hydroxytryptamine receptor 7 (Homo sapiens) (P34969 whole entry): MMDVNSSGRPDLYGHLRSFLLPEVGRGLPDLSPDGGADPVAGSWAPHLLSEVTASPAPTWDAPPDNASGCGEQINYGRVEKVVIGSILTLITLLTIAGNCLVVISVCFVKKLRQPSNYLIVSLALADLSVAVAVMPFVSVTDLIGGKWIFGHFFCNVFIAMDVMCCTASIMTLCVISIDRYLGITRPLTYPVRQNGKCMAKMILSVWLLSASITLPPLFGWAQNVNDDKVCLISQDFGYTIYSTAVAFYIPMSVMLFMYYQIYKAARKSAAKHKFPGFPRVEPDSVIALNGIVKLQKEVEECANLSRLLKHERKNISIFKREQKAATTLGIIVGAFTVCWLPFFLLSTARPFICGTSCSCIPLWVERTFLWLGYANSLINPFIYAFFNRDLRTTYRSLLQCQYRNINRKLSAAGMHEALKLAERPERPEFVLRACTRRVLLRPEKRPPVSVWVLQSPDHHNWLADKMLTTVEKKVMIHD

SMILES	pKb
COc1ccccc1N1CCN(CCCNS(=O)(=O)c2ccc(F)cc2)CC1	7.26
O=C(OC1CCN(CC[C@H]2CCCN2S(=O)(=O)c2ccccc2)CC1)c1ccc(F)cc1	7.1
